{
  "source": "patent US20100233145A1",
  "about": "“COMPOSITION USED AS A NUTRITIONAL SUPPLEMENT AND MEDICATION FOR THE TREATMENT OF DEGENERATIVE VISUAL DISORDERS AND INFLAMMATION” (APO PHARMACEUTICALS INTERNATIONAL B.V., priority 2006, published 2010)",
  "system": "retina explants from rd1 mice",
  "assay": "in vitro organ culture of retina explants under serum-free conditions",
  "assay_type": "cell-based, mouse",
  "settings": "for Number of rows of photoreceptors average ± SD, (n): rd/rd retina explants, glutathione 3 μg/ml, ALA 2 μg/ml, zeaxanthin 0.3 μg/ml, lutein 0.3 μg/ml, control 1.5 ± 0.3",
  "experimental": "The in vitro-experiments were performed on an organ culture of retina explants under serum-free conditions, as described in […], Ahuja P, Holmqvist B, Azadi […], van Veen T (2001) “Mouse retina explants after long-term culture in serum-free medium.”, J Chem Neuroanat 22: 263-273. The described technique was carried out on retina explants from rd1 mice as used in the in-vivo experiments. Retinas of rd1 mice were transferred at PN3 to an in vitro culture on flat nitrocellulose membranes and were kept in […] medium for 8 and 21 days, corresponding with the age PN11 and […] of the animals. All experiments were performed paired, wherein untreated retinas were compared to retinas which were exposed to a treatment. […] In order to achieve these concentrations the correct measured quantities of stock solution as described for the in vivo experiments were added to the medium. […] The rows of photoreceptors in the outer nuclear layer (ONL) were counted in 5 slices of each composition, wherein of each slice six different sections were analysed corresponding with the sections in the in vivo experiments. The differences between treated and untreated retinas were compared statistically with Student's paired t-test, or Student's unpaired t-test, wherein differences in which p<0.05 were deemed significant.",
  "data": [
    {"smiles": "CC1=C[C@H](O)CC(C)(C)[C@H]1/C=C/C(C)=C/C=C/C(C)=C/C=C/C=C(C)/C=C/C=C(C)/C=C/C1=C(C)C[C@@H](O)CC1(C)C", "note": "[Lutein, (3R, 3′R, 6′R)-(3,c-carotene-3,3′-diol]", "values": [
      {"measurement": "Number of rows of photoreceptors average ± SD, (n)", "result": "2.0 ± 0.8 (n-6) rows"}
    ]},
    {"smiles": "O=C(O)CCCCC1CCSS1", "note": "(stereo not drawn) [alpha lipoic acid, thioctic acid]", "values": [
      {"measurement": "Number of rows of photoreceptors average ± SD, (n)", "result": "1.8 ± 0.5 (n-6) rows"}
    ]},
    {"smiles": "N[C@@H](CCC(=O)N[C@@H](CS)C(=O)NCC(=O)O)C(=O)O", "note": "[glutathione, L-glutathione]", "values": [
      {"measurement": "number of rows of photoreceptor cells, treated versus untreated explant", "setting": "rd1 explant, FIGS. 6a and 6b", "result": "almost the same"},
      {"measurement": "Number of rows of photoreceptors average ± SD, (n)", "result": "2.0 ± 0.9 (n-6) rows"}
    ]},
    {"smiles": "CC1=C(/C=C/C(C)=C/C=C/C(C)=C/C=C/C=C(C)/C=C/C=C(C)/C=C/C2=C(C)C[C@@H](O)CC2(C)C)C(C)(C)C[C@H](O)C1", "note": "[zeaxanthin, (3R, 3′R)-β,β-carotene-3,3′-diol]", "values": [
      {"measurement": "Number of rows of photoreceptors average ± SD, (n)", "result": "1.9 ± 0.7 (n-6) rows"}
    ]}
  ]
}
